Reference: patent publication US12616704B2, “Cannabichromene formulation for pain management” (Zyus Life Sciences Inc., priority 2020, dated 2026)

Experiments:
SNL model effect = test: Data mining (cPCA) of kinematic gait data: SNL model (analgesic) and sedation effect scores; type: in vivo, rats
Protocol: Data mining was successfully performed to extend the multivariate kinematic data analysis and capture the analgesic effect of cannabichromene (CBC) on quantitative measurement of parameters attributed to the temporal aspects of motion to evaluate temporal aspects of motion, such as positions, angles, velocities, and accelerations of body segments and joints during motion.
Overall, 97 gait parameters were analyzed, and each parameter was averaged within each treatment group. A statistical method using Contrastive Principal Component Analysis (cPCA) was employed (Abid et al., 2018). The method of cPCA was designed to identify different combinations of original variables linked to the Spinal Nerve Ligation (SNL) model effect (pain) and learning effect. An orthogonalization procedure was then performed to create the obtained effects independent of learning and possible sedation. After the contrastive principal components (cPCs) (Model, Sedative) were established, the corresponding cPC scores were computed for each observation. The obtained cPC scores were further analyzed by using mixed two-way ANOVA followed by Dunnett's test of the estimated marginal means. The cPCA based analysis framework was implemented using R environment (R version 3.6.3). Statistical analysis was performed using Ime4 (Bates et al., 2015) and emmeans (R package version 1.4.5.) packages. The results of these comparisons were obtained by using all the previously identified components: model effect, learning effect and model orthogonal to learning.

[1] = system: SNL-induced motor phenotype; test: Fine motor kinematic gait analysis (MotoRater) in SNL model; type: in vivo, Sprague-Dawley rats; details: for overall gait score, CBC compared to pregabalin: p: CBC 10 mg/kg vs. pregabalin 50 mg/kg; for Knee ROM Deviation [degree]: Stats: vehicle vs. treatment group; for Overall kinematic gait score, Vehicle vs. treatment: Summary / Overall kinematic gait score, Vehicle vs. treatment: Predicted (LS) mean diff.: between groups; for Overall kinematic gait score, Vehicle vs. treatment: Predicted (LS) mean diff. / Overall kinematic gait score, D7 vs. D8 5 h: Predicted (LS) mean diff. / Overall kinematic gait score, D7 vs. D8 9 h: Predicted (LS) mean diff. / Overall kinematic gait score, D7 vs. D9: Predicted (LS) mean diff. / Overall kinematic gait score, D7 vs. Baseline: Predicted (LS) mean diff.: z-score; for Ankle Angle, Max [degree]: Stats: vehicle vs. treatment, pregabalin 50 mg/kg; for Overall kinematic gait score, D7 vs. D8 5 h: Summary / Overall kinematic gait score, D7 vs. D8 9 h: Summary / Overall kinematic gait score, D7 vs. D9: Summary / Overall kinematic gait score, D7 vs. Baseline: Summary / Overall kinematic gait score, D7 vs. D8 5 h: Predicted (LS) mean diff. / Overall kinematic gait score, D7 vs. D8 9 h: Predicted (LS) mean diff. / Overall kinematic gait score, D7 vs. D9: Predicted (LS) mean diff. / Overall kinematic gait score, D7 vs. Baseline: Predicted (LS) mean diff.: within group; for Overall kinematic gait score, D7 vs. Baseline: Summary / Overall kinematic gait score, D7 vs. Baseline: Predicted (LS) mean diff.: before dosing
Protocol: The treatment groups received the following test article mixtures: • Group 1: treated with vehicle (0.9% saline) • Group 2: treated with Pregabalin (50 mg/kg) • Group 3: treated with CBC (10 mg/kg)
Administration of Treatments. CBC (cannabichromene) formulation, the vehicle, or pregabalin treatment was administered according to Table 1 on study day 8 to all study animals, and on study day 10 to 6 animals per group. The dousing route of CBC or the vehicle were intragastric (p.o.), while pregabalin was administered intraperitoneally (i.p.). In addition to D8, pregabalin was administered on D9, at 2 h prior to the evf test. All animals of the pregabalin group were euthanized on D9, following the last test trial. The CBC was dissolved and diluted to one of the following vehicles:
Fine Motor Kinematic Gait Analysis. The subjected to gait analysis at the baseline and on study days 8, 9, 11, 14 and 17, at a minimum of 30 min after the evF test. The assay was carried out by MotoRater (TSE Systems, Homburg, Germany), with the walking mode. Prior to commencing the test, the essential body points (e.g. joints, limbs, nose, tail) were marked for tracking. The information of the gait performance was captured using a high speed camera (300 frames/second) from below and both sides. Next, the captured videos are converted to custom software. The raw data was obtained by tracking the marked points of the body from the videos recorded from all 3 dimensions. The raw data thus comprise correlation of the movements of different body points in coordinates related to the ground and each three dimensions.
Different gait patterns and movements were analyzed using a custom made automated analysis system. Information about altogether over a hundred kinematic parameters were attained. These comprised e.g:
All MotoRater data were analyzed for the distinct parameters, as well as for all combined parameters, using principal component analysis (PCA). The obtained results produce the model phenotype in gait analysis i.e. the difference between vehicle and cannabinoid treated animals regarding both individual parameters and PCA.
In addition to the baseline test, the motorater test was performed altogether four times over the course of behavioral study phase: • on D7, to assess the model-specific motor defects prior to dosing, • on D8, after finishing the 4-h evF, • on D8, after finishing the 8-h evF, and • on D9, after finishing the 24-h evF.
The kinematic assay was not performed to the animals before a minimum of 30 min after evF test.

[2] = BL (before dosing), vehicle vs. CBC 10 mg/kg group
[3] = Baseline (before SNL and dosing)
[4] = D8 5 h, CBC 10 mg/kg p.o., pregabalin 50 mg/kg i.p.
[5] = D 8 5 h, vehicle vs. CBC 10 mg/kg
[6] = D8 9 h, CBC 10 mg/kg p.o., pregabalin 50 mg/kg i.p.
[7] = D9, CBC 10 mg/kg p.o., pregabalin 50 mg/kg i.p.
[8] = Table 8, BL (before dosing), vehicle vs. CBC 10 mg/kg group
[9] = Table 8, D 8 5 h, vehicle vs. CBC 10 mg/kg
[10] = CBC 10 mg/kg p.o., pregabalin 50 mg/kg i.p.
[11] = BL (before dosing), vehicle vs. pregabalin group
[12] = D 7 (pre-dosing), vehicle vs. pregabalin group

CCCCCc1cc(O)c2c(c1)OC(C)(CCC=C(C)C)C=C2 (centres unmarked) [CBC, cannabichromene]
SNL model effect score (analgesic effect) (SNL model effect; 9 hours post-dosing, single dose CBC 10 mg/kg p.o.): No significant analgesic effect | SNL model score (analgesic effect) compared to vehicle group: p (SNL model effect; D8 5 h post-dosing, single dose CBC 10 mg/kg p.o.): < 0.05 | independent sedation effect score (SNL model effect; D8, 5 h and D8, 9 h post-dosing, CBC 10 mg/kg, CBD:THC 10:10 mg/kg): did not exert any sedative effect | overall gait score, CBC compared to pregabalin: p ([1]; 5 h PD): 0.07693 | overall gait score, CBC compared to pregabalin: p ([1]; 9 h PD): 0.04717 | Ankle ROM Deviation [degree]: Stats [1, 2]: 2.98 | Homolateral Interlimb coordination: Stats [1, 2]: 2.84 | Swing Speed Metric, Hind: Stats [1, 2]: −3.67 | Knee ROM Deviation [degree]: Stats ([1]; BL (before dosing)): 2.88 | Overall kinematic gait score, Vehicle vs. treatment: Summary [1, 3]: ns | Overall kinematic gait score, Vehicle vs. treatment: Predicted (LS) mean diff. [1, 3]: −1 | overall Gait score compared to Vehicle ([1]; CBC 10 mg/kg): did not show a significant reduction in overall Gait score compared to Vehicle | overall gait score, within group comparisons over time ([1]; CBC 10 mg/kg): did not identify a significant time-bound overall gait score difference | Overall kinematic gait score, Vehicle vs. treatment: Summary ([1]; D7 (pre-dosing)): ns | Overall kinematic gait score, Vehicle vs. treatment: Predicted (LS) mean diff. ([1]; D7 (pre-dosing)): 0.1511 | Overall kinematic gait score, Vehicle vs. treatment: Summary [1, 4]: ns | Hip Angle, Max [degree]: Stats [1, 5]: 4.29 | Knee Angle, Min [degree]: Stats [1, 5]: 3.78 | Mean Hip Jerk [m/s3]: Adjusted p-value [1, 5]: 0.01 | Mean Hip Jerk [m/s3]: Adjusted p-value Sig? [1, 5]: ** (** p≤0.01) | Mean Hip Jerk [m/s3]: Stats [1, 5]: −3.04 | Mean Hip Jerk [m/s3]: p-value [1, 5]: 0.01 | Protraction, Hind [m]: Stats [1, 5]: −4.42 | Retraction, Hind [m]: Stats [1, 5]: 4.26 | Step Width, Fore [mm]: Stats [1, 5]: −2.86 | Ankle Angle, Max [degree]: Stats ([1]; D 8 5 h, CBC 10 mg/kg): −2.85 | Overall kinematic gait score, Vehicle vs. treatment: Predicted (LS) mean diff. [1, 4]: 1.116 | Overall kinematic gait score, Vehicle vs. treatment: Summary [1, 6]: ns | Overall kinematic gait score, Vehicle vs. treatment: Predicted (LS) mean diff. [1, 6]: 0.654 | Overall kinematic gait score, Vehicle vs. treatment: Summary [1, 7]: ns | Overall kinematic gait score, Vehicle vs. treatment: Predicted (LS) mean diff. [1, 7]: −0.4602 | Homolateral Interlimb coordination, CBC vs. Vehicle: p ([1]; D9 post-dosing, CBC 10 mg/kg): 0.03 | Ankle ROM: Significance [1, 8]: * (p<0.05, significant) | Ankle ROM: Statistic [1, 8]: 2.98 | Homolateral: Significance [1, 8]: * (p<0.05, significant) | Homolateral: Statistic [1, 8]: 2.84 | Knee ROM: Significance [1, 8]: * (p<0.05, significant) | Knee ROM: Statistic [1, 8]: 2.88 | Swing Speed: Significance [1, 8]: ** (p<0.01, very significant) | Swing Speed: Statistic [1, 8]: −3.67 | Ankle Angle. Max: Significance [1, 9]: * (p<0.05, significant) | Ankle Angle. Max: Statistic [1, 9]: −2.85 | Hip Angle. Max: Significance [1, 9]: *** (p<0.001, extremely/highly significant) | Hip Angle. Max: Statistic [1, 9]: 4.29 | Knee Angle. Min: Significance [1, 9]: ** (p<0.01, very significant) | Knee Angle. Min: Statistic [1, 9]: 3.78 | Mean Hip Jerk: Significance [1, 9]: * (p<0.05, significant) | Mean Hip Jerk: Statistic [1, 9]: −3.04 | Mean Hip Jerk: p-value [1, 9]: 0.00953 | Protraction. Hind: Significance [1, 9]: *** (p<0.001, extremely/highly significant) | Protraction. Hind: Statistic [1, 9]: −4.42 | Retraction. Hind: Significance [1, 9]: *** (p<0.001, extremely/highly significant) | Retraction. Hind: Statistic [1, 9]: 4.26 | Step Width. Fore: Significance [1, 9]: * (p<0.05, significant) | Step Width. Fore: Statistic [1, 9]: −2.86 | Support Metric gait variables compared to Vehicle ([1]; baseline to D9, CBC 10 mg/kg): No statistical significance was observed | Overall kinematic gait score, D7 vs. D8 5 h: Summary [1, 10]: ns | Overall kinematic gait score, D7 vs. D8 9 h: Summary [1, 10]: ns | Overall kinematic gait score, D7 vs. D9: Summary [1, 10]: ns | Overall kinematic gait score, D7 vs. Baseline: Summary [1]: ** (p<0.01, very significant) | Overall kinematic gait score, D7 vs. D8 5 h: Predicted (LS) mean diff. [1, 10]: −0.5337 | Overall kinematic gait score, D7 vs. D8 9 h: Predicted (LS) mean diff. [1, 10]: −1.516 | Overall kinematic gait score, D7 vs. D9: Predicted (LS) mean diff. [1, 10]: −1.619 | Overall kinematic gait score, D7 vs. Baseline: Predicted (LS) mean diff. [1]: 2.236

CC(C)C[C@H](CN)CC(=O)O [Pregabalin, pregabalin, reference compound]
analgesic or sedative effect in fine motor kinematic performance (SNL model effect; pregabalin 50 mg/kg): no analgesic or sedative effect | Duty Cycle [%]: Stats [1, 11]: 2.77 | Duty Cycle, Fore [%]: Stats [1, 11]: 3.26 | Mean Hip Jerk [m/s3]: Adjusted p-value [1, 11]: 0.001 | Mean Hip Jerk [m/s3]: Adjusted p-value Sig? [1, 11]: *** (*** p≤0.001) | Mean Hip Jerk [m/s3]: Stats [1, 11]: −3.75 | Mean Hip Jerk [m/s3]: p-value [1, 11]: 0.001 | Knee ROM Deviation [degree]: Stats ([1]; BL (before dosing)): 3.23 | Overall kinematic gait score, Vehicle vs. treatment: Summary [1, 3]: * (p<0.05, significant) | Overall kinematic gait score, Vehicle vs. treatment: Predicted (LS) mean diff. [1, 3]: −2.013 | Overall kinematic gait score, Vehicle vs. treatment: Summary ([1]; D7 (pre-dosing)): ns | Paw Trajectory Shape 25%, Hind [%]: Stats [1, 12]: −3.01 | Relative Trajectory Length, Fore: Stats [1, 12]: −3.26 | Overall kinematic gait score, Vehicle vs. treatment: Predicted (LS) mean diff. ([1]; D7 (pre-dosing)): −0.5896 | Overall kinematic gait score, Vehicle vs. treatment: Summary [1, 4]: ns | Ankle Angle, Min [degree]: Stats ([1]; D 8 5 h, vehicle vs. pregabalin 50 mg/kg): −2.99 | Ankle Angle, Max [degree]: Stats ([1]; D 8 5 h, CBC 10 mg/kg): −3.74 | Overall kinematic gait score, Vehicle vs. treatment: Predicted (LS) mean diff. [1, 4]: −0.2262 | Overall kinematic gait score, Vehicle vs. treatment: Summary [1, 6]: ns | Hip ROM [degree]: Stats ([1]; D 8 9 h, vehicle vs. pregabalin 50 mg/kg): 2.85 | Overall kinematic gait score, Vehicle vs. treatment: Predicted (LS) mean diff. [1, 6]: −0.8408 | Overall kinematic gait score, Vehicle vs. treatment: Summary [1, 7]: ns | Overall kinematic gait score, Vehicle vs. treatment: Predicted (LS) mean diff. [1, 7]: −0.8531 | Overall kinematic gait score, D7 vs. D8 5 h: Summary [1, 10]: ns | Overall kinematic gait score, D7 vs. D8 9 h: Summary [1, 10]: ** (p<0.01, very significant) | Overall kinematic gait score, D7 vs. D9: Summary [1, 10]: ns | Overall kinematic gait score, D7 vs. Baseline: Summary [1]: ** (p<0.01, very significant) | Overall kinematic gait score, D7 vs. D8 5 h: Predicted (LS) mean diff. [1, 10]: −1.135 | Overall kinematic gait score, D7 vs. D8 9 h: Predicted (LS) mean diff. [1, 10]: −2.27 | Overall kinematic gait score, D7 vs. D9: Predicted (LS) mean diff. [1, 10]: −1.271 | Overall kinematic gait score, D7 vs. Baseline: Predicted (LS) mean diff. [1]: 1.964
